Measured values from the supplement of paper PMC10627819.

How the values were obtained:
Experiment in all cases: Bliss interaction score (quartile over a dose matrix) (fitness difference); higher = more antagonism (negative = synergy)
S. aureus Newman = conditions: main component drawn
In short: (§1)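 Fitness here means normalised growth, inferred for single drugs from the combination data. Growth was OD595 at entry into stationary phase, divided by the plate's robust no-drug mean and capped at 1. The Bliss score is observed minus expected fitness, with the expectation being the product, and its quartiles span technical, biological and donor/recipient replicates.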

S. pneumoniae D39V = conditions: main component drawn
In short: as §1

B. subtilis 168 = conditions: main component drawn
In short: as §1

S. aureus DSM 20231 = system: S. aureus DSM 20231
In short: as §1
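Further: first quartile when negative (synergy) and third quartile when positive (antagonism).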

SMILES	Bliss interaction score (S. aureus Newman)	Bliss interaction score (S. pneumoniae D39V)	Bliss interaction score (B. subtilis 168)	Bliss interaction score (S. aureus DSM 20231; main component drawn)	Bliss interaction score (S. aureus DSM 20231)
CC[C@H](C)[C@H](N)C1=N[C@H](C(=O)N[C@@H](CC(C)C)C(=O)N[C@H](CCC(=O)O)C(=O)N[C@H](C(=O)N[C@H]2CCCCNC(=O)[C@H](CC(N)=O)NC(=O)[C@@H](CC(=O)O)NC(=O)[C@H](Cc3cnc[nH]3)NC(=O)[C@@H](Cc3ccccc3)NC(=O)[C@H]([C@@H](C)CC)NC(=O)[C@@H](CCCN)NC2=O)[C@@H](C)CC)CS1 [Bacitracin] + C1=CC(=CC(=C1)Cl)NN=C(C#N)C#N [CCCP]	0.194	0.0638	0.0608	-0.0168	–
CC[C@H](C)[C@H](N)C1=N[C@H](C(=O)N[C@@H](CC(C)C)C(=O)N[C@H](CCC(=O)O)C(=O)N[C@H](C(=O)N[C@H]2CCCCNC(=O)[C@H](CC(N)=O)NC(=O)[C@@H](CC(=O)O)NC(=O)[C@H](Cc3cnc[nH]3)NC(=O)[C@@H](Cc3ccccc3)NC(=O)[C@H]([C@@H](C)CC)NC(=O)[C@@H](CCCN)NC2=O)[C@@H](C)CC)CS1 [Bacitracin] + CC1(C)S[C@@H]2[C@H](NC(=O)Cc3ccccc3)C(=O)N2[C@H]1C(=O)O [PenicillinG]	0.0689	-0.0799	-0.164	0.0263	–
CC[C@H](C)[C@H](N)C1=N[C@H](C(=O)N[C@@H](CC(C)C)C(=O)N[C@H](CCC(=O)O)C(=O)N[C@H](C(=O)N[C@H]2CCCCNC(=O)[C@H](CC(N)=O)NC(=O)[C@@H](CC(=O)O)NC(=O)[C@H](Cc3cnc[nH]3)NC(=O)[C@@H](Cc3ccccc3)NC(=O)[C@H]([C@@H](C)CC)NC(=O)[C@@H](CCCN)NC2=O)[C@@H](C)CC)CS1 [Bacitracin] + CC(=O)O[C@H]1C[C@@]2(C)[C@@H](C[C@@H](O)[C@H]3[C@@]4(C)CC[C@@H](O)[C@@H](C)[C@@H]4CC[C@@]32C)/C1=C(\CCC=C(C)C)C(=O)O [Fusidic acid]	-0.0273	-0.0749	-0.166	0.012	–
CC[C@H](C)[C@H](N)C1=N[C@H](C(=O)N[C@@H](CC(C)C)C(=O)N[C@H](CCC(=O)O)C(=O)N[C@H](C(=O)N[C@H]2CCCCNC(=O)[C@H](CC(N)=O)NC(=O)[C@@H](CC(=O)O)NC(=O)[C@H](Cc3cnc[nH]3)NC(=O)[C@@H](Cc3ccccc3)NC(=O)[C@H]([C@@H](C)CC)NC(=O)[C@@H](CCCN)NC2=O)[C@@H](C)CC)CS1 [Bacitracin] + CC[C@H]1OC(=O)[C@H](C)C(=O)[C@H](C)[C@@H](O[C@@H]2O[C@H](C)C[C@H](N(C)C)[C@H]2O)[C@](C)(OC)C[C@@H](C)C(=O)[C@H](C)[C@H]2N(CCCCn3cnc(-c4cccnc4)c3)C(=O)O[C@]12C [Telithromycin]	-0.047	0.0263	-0.0381	-0.0302	–
CC[C@H](C)[C@H](N)C1=N[C@H](C(=O)N[C@@H](CC(C)C)C(=O)N[C@H](CCC(=O)O)C(=O)N[C@H](C(=O)N[C@H]2CCCCNC(=O)[C@H](CC(N)=O)NC(=O)[C@@H](CC(=O)O)NC(=O)[C@H](Cc3cnc[nH]3)NC(=O)[C@@H](Cc3ccccc3)NC(=O)[C@H]([C@@H](C)CC)NC(=O)[C@@H](CCCN)NC2=O)[C@@H](C)CC)CS1 [Bacitracin] + CC[C@H]1OC(=O)[C@H](C)[C@@H](O[C@H]2C[C@@](C)(OC)[C@@H](O)[C@H](C)O2)[C@H](C)[C@@H](O[C@@H]2O[C@H](C)C[C@H](N(C)C)[C@H]2O)[C@](C)(O)C[C@@H](C)C(=O)[C@H](C)[C@@H](O)[C@]1(C)O [Erythromycin]	-0.0632	0.0397	-0.0517	-0.0209	–
CC[C@H](C)[C@H](N)C1=N[C@H](C(=O)N[C@@H](CC(C)C)C(=O)N[C@H](CCC(=O)O)C(=O)N[C@H](C(=O)N[C@H]2CCCCNC(=O)[C@H](CC(N)=O)NC(=O)[C@@H](CC(=O)O)NC(=O)[C@H](Cc3cnc[nH]3)NC(=O)[C@@H](Cc3ccccc3)NC(=O)[C@H]([C@@H](C)CC)NC(=O)[C@@H](CCCN)NC2=O)[C@@H](C)CC)CS1 [Bacitracin] + CC[C@H]1OC(=O)[C@H](C)[C@@H](O[C@H]2C[C@@](C)(OC)[C@@H](O)[C@H](C)O2)[C@H](C)[C@@H](O[C@@H]2O[C@H](C)C[C@H](N(C)C)[C@H]2O)[C@](C)(OC)C[C@@H](C)C(=O)[C@H](C)[C@@H](O)[C@]1(C)O [Clarithromycin]	-0.0869	-0.0454	0.0539	-0.0475	–
CN[C@@H]1[C@H](O[C@H]2[C@H](O[C@H]3[C@H](O)[C@@H](O)[C@H](N=C(N)N)[C@@H](O)[C@@H]3N=C(N)N)O[C@@H](C)[C@]2(O)C=O)O[C@@H](CO)[C@H](O)[C@H]1O [Streptomycin] + Cc1ccc(C(C)C)c(O)c1 [Thymol]	–	–	–	–	-0.425
